Measurements taken from patent publication US20140220132A1, “Pharmaceutical Formulation Comprising Compounds of the Jasmonate Family” (priority 2011, published 2014).

Assay: GC/MS analysis of incorporation of methyl jasmonate into nano carriers (inclusion complexes)
Assay type: physicochemical
Settings: determined by GC
Method: The following analysis were performed with GC/MS (gas chromatography/mass spectrometry), showing possible breakages of the elements that are included in the jasmonate family and also inclusion of such elements in several nano carriers such as dendrimers and CDs for comparison of analytical behavior. Used dendrimers was PAMAM (poly amide amine). Cyclodextrin was used as β-cyclodextrin.
Preparation of inclusion complexes was performed according to Rajewski R A, Stella V J pharmaceutical applications of cyclodextrins. 2. In delivering the in vivo drug. J. Pharm Sci 1996; 85 (11):1142-69. Inclusion compounds, or nano/micro carriers with jasmonates, can be prepared through mixing a different concentration from zero from one or more jasmonate compounds with up to a molar proportion equivalent to the host molecule. The preparation process also includes mixing the compound resulting from metabolism of the element of the jasmonate family in a water solution or other solution with acceptable pharmaceutical salts. The resulting solution is agitated until total dissolution of components in solvent. The mixing time is of some hours until the mixture reaches thermodynamic balance. […]

CC/C=C\CC1C(=O)CCC1CC(=O)OC (centres unmarked) [methyl jasmonate]
percentage regarding incorporation of methyl jasmonate within PAMAM dendrimers (carrier PAMAM (poly amide amine) dendrimers): around 95% | percentage regarding incorporation of methyl jasmonate within β-CD (carrier β-cyclodextrin): 98-99%
